Laboratory results from patent US20020032330A1, “Propionic acid derivatives” (priority 1996, published 2002).

Key:
[1] = tested on: KKA^y mouse; test: Hypoglycemic and hypolipidemic effect in KKA^y mouse (oral, once a day for three days); assay type: in vivo; conditions: KKA^y mice, blood 18 hours after final administration
Description: The hypoglycemic effect and hypolipidemic effect were examined using KKA^y mouse which was known as insulin-independent diabetic animal. A group of KKA^y mice (9 to 11 week age) were divided into several groups based on plasma glucose concentration. Each group included mice having an equal plasma glucose concentration. To the mouse was orally administered a compound of the invention in the form of suspension in a 1% methylcellulose solution. The administration was performed once a day and for a period of three days. To the control (mouse having been administered no hypoglycemic agent) was orally administered a 1% methylcellulose solution in the same manner.
After 18 hours from the final administration, blood was collected, and the plasma glucose concentration and the triglyceride concentration were measured. The measurements were performed using commercially available measuring kits (Glucose CII-TestWako and Triglyceride G-TestWako, respectively, both available from Wako Chemicals Co., Ltd.).
The plasma glucose concentration and the triglyceride concentration were examined for each of the divided mouse groups, and their ratio (%) per the corresponding values obtained in the control was calculated.
The same tests were also performed using the comparison compounds, that is, troglitazone and pioglitazone hydrochloride, which were known as pharmaceuticals for treating diabetes.

| Structure (SMILES) | Plasma glucose concentration (% per control) ([1]; dosage 100 mg/kg) | Triglyceride concentration (% per control) ([1]; dosage 100 mg/kg) | Plasma glucose concentration (% per control) ([1]; dosage 30 mg/kg) | Triglyceride concentration (% per control) ([1]; dosage 30 mg/kg) | also measured |
| --- | --- | --- | --- | --- | --- |
| O=C(O)C(Cc1cnc2ccc(OCc3ccc(C(F)(F)F)cc3)cc2c1)Sc1ccccc1 (centres unmarked) [Compound 1, 3-[6-[(4-trifluoromethyl)benzyloxy]-3-quinolyl]-2-(phenylthio) propionic acid] | 68 % per control | 60 % per control | – | – | – |
| COCCOC(Cc1cc2cc(OCc3ccc(C(F)(F)F)cc3)ccc2[nH]1)C(=O)O (centres unmarked) [Compound 2, 2-(2-methoxyethoxy)-3-[5-[(4-trifluoro-methyl)benzyloxy]-2-indolyl]propionic acid] | – | – | 53 % per control | 17 % per control | – |
| CCOC(Cc1cnc2ccc(OCc3ccc(Cl)cc3)cc2c1)C(=O)O (centres unmarked) [Compound 3, 3-[6-(4-chlorobenzyloxy)-3-quinolyl]-2-ethoxypropionic acid] | – | – | 63 % per control | 66 % per control | – |
| CCOC(Cc1cnc2cc(OCc3ccc(Cl)cc3)ccc2c1)C(=O)O (centres unmarked) [Compound 4, 3-[7-(4-chlorobenzyloxy)-3-quinolyl]-2-ethoxypropionic acid] | – | – | 58 % per control | 61 % per control | – |
| O=C(O)C(Cc1cnc2cc(OCc3ccc(Cl)cc3)ccc2c1)Oc1ccccc1 (centres unmarked) [Compound 5, 3-[7-(4-chlorobenzyloxy)-3-quinolyl]-2-phenoxypropionic acid] | – | – | 77 % per control | 81 % per control | – |
| Cc1oc(-c2ccccc2)nc1CCc1noc2cc(CC(Sc3ccccc3)C(=O)O)ccc12 (centres unmarked) [Compound 6, 2-phenylthio-3-[3-[2-(2-phenyl-5-methyl-4-oxazolyl)ethyl]-1,2-benzisoxazol-6-yl]-propionic acid] | 46 % per control | 31 % per control | – | – | – |
| CCOC(Cc1ccc2c(CCc3nc(-c4ccccc4)oc3C)noc2c1)C(=O)O (centres unmarked) [Compound 7, 2-ethoxy-3-[3-[2-(2-phenyl-5-methyl-4-oxazolyl)ethyl]-1,2-benzisoxazol-6-yl]-propionic acid] | – | – | – | – | Plasma glucose concentration (% per control) ([1]; dosage 1 mg/kg): 76 % per control; Triglyceride concentration (% per control) ([1]; dosage 1 mg/kg): 87 % per control; Plasma glucose concentration (% per control) ([1]; dosage 3 mg/kg): 61 % per control; Triglyceride concentration (% per control) ([1]; dosage 3 mg/kg): 65 % per control; Plasma glucose concentration (% per control) ([1]; dosage 10 mg/kg): 60 % per control; Triglyceride concentration (% per control) ([1]; dosage 10 mg/kg): 45 % per control |
| CCCSC(Cc1cnc2cc(OCc3ccc(Cl)cc3)ccc2c1)C(=O)O (centres unmarked) [Example 2, 3-[7-(4-Chlorobenzyloxy)-3-quinolyl]-2-(propylthio) propionic acid] | – | – | – | – | melting point: 50 to 60 °C |
| COCCOC(Cc1cnc2cc(OCc3ccc(Cl)cc3)ccc2c1)C(=O)O (centres unmarked) [Example 6, 3-[7-(4-Chlorobenzyloxy)-3-quinolyl]-2-(2-methoxyethoxy) propionic acid] | – | – | – | – | melting point: 110 to 113 °C |
| COCCOC(Cc1cnc2ccc(OCc3ccc([N+](=O)[O-])cc3)cc2c1)C(=O)O (centres unmarked) [Example 7, 2-(2-Methoxyethoxy)-3-[6-(4-nitrobenzyloxy)-3-quinolyl]propionic acid] | – | – | – | – | melting point: 146 to 148 °C |
| CCc1ccc(CCOc2ccc(CC3SC(=O)NC3=O)cc2)nc1.Cl (centres unmarked) [Pioglitazone hydrochloride, reference compound] | 65 % per control | 69 % per control | 68 % per control | 84 % per control | – |
| Cc1c(C)c2c(c(C)c1O)CCC(C)(COc1ccc(CC3SC(=O)NC3=O)cc1)O2 (centres unmarked) [Troglitazone, reference compound] | 68 % per control | 101 % per control | 84 % per control | 99 % per control | – |
